Measured values reported in paper PMC2228302, “Crystal structure of Leishmania tarentolae hypoxanthine-guanine phosphoribosyltransferase” (BMC Structural Biology, 2007).

Each compound was assayed against Leishmania HGPRT (Leishmania tarentolae, UniProt Q9NJI5, D188E/G191E/H176R/L189Y/T185D/V183G/V192L/W184M) (assay: biochemical). Conditions: IC50, Leishmania HGPRT; approximate value stated in text.
Method: The HGPRT enzyme inhibition assay was performed for 1 min in a 1 ml reaction volume containing 100 mM Tris-HCl, 5 mM MgSO4, 1 mM PRPP, 0.04 mM guanine at pH 7.4 [41]. An extinction coefficient of 4.2 was used.

Row | Compound | IC50 [µM]
1 | Oc1ncnc2[nH]ncc12 [allopurinol] | ~200

Same assay, conditions: IC50, recombinant L. tarentolae HGPRT; 1 min, 1 mM PRPP, 0.04 mM guanine, pH 7.4; six inhibitor concentrations in triplicate

Row | Compound | IC50 [µM]
2 | Nc1nc2c(nc(N)n2[C@@H]2O[C@H](CO)[C@@H](O)[C@H]2O)c(=O)[nH]1 [8-aminoguanosine] | 94
3 | O=C(O)c1cc(=O)[nH]c(=O)[nH]1 [Orotic acid] | 432
4 | Oc1ncnc2[nH]ncc12 [allopurinol] | 194
5 | CO/N=C(\C(=O)N[C@@H]1C(=O)N2C(C(=O)O)=C(COC(C)=O)CS[C@H]12)c1csc(N)n1 [cefotaxime] | 180

Same assay, conditions: recombinant L. tarentolae HGPRT; 1 min, 1 mM PRPP, 0.04 mM guanine, pH 7.4; six inhibitor concentrations in triplicate; read-out: IC50

Row | Compound | IC50 [µM]
6 | O=c1[nH]c(=O)n([C@H]2C[C@H](O)[C@@H](CO)O2)cc1Br [5-bromodeoxiuridine] | 350
7 | Cc1cnc(=O)[nH]c1N [5-metilcitosine] | 412
8 | Nc1nc(Cl)c2[nH]cnc2n1 [6-cloroguanine] | 838
9 | O=c1[nH]cnc2c([C@@H]3O[C@H](CO)[C@@H](O)[C@H]3O)n[nH]c12 [formicin B] | 260
10 | Nc1ncnc2c1ccn2[C@@H]1O[C@H](CO)[C@@H](O)[C@H]1O [tubercidine] | 533
11 | azaadenine | 210

These compounds were tested against Leishmania tarentolae hypoxanthine-guanine phosphoribosyltransferase (Leishmania tarentolae) (assay: crystal structure; co-crystallized with GMP in 19% PEG 4000, 20.6% isopropanol, 5% glycerol, 95 mM tri-sodium citrate, pH 5.6; space group P212121; two monomers (chains A and B) in the asymmetric unit; 2.1 Å). Conditions: not given.

Row | Compound | stoichiometry N
12 | Leishmania tarentolae hypoxanthine-guanine phosphoribosyltransferase (enzyme) | 2
